From patent US20240182470A1, “KRASG12C MUTANT PROTEIN INHIBITOR, PREARATION AND USE THEREOF” (YA THERAPEUTICS INC, priority 2021, published 2024)

Test system: H358 (KRAS G12C mutant) cells
Experiment: Tumor cell proliferation inhibition assay (Cell Titer-Glo, 72 h)
Assay type: cell-based
Settings: inhibition of tumor cell proliferation, 72 hours with compound, 10% fetal bovine serum; read-out: NCI-H538 IC50(nm)
Description: The H358 (KRAS G^12C mutant) cells were digested, centrifuged and resuspended, and the cell density was measured with a Scepter automatic cell counter. The cells were diluted to a solution containing 44,000 cells per milliliter, and the density-adjusted cell solution was 90 microliters per well. into a 96-well culture plate. The 96-well plate was placed in a 37° C., 5% CO2 incubator. After the cells were cultured for 24 hours, different concentrations of the compounds to be tested were added. The cells were incubated with the compounds for 72 hours in the presence of 10% fetal bovine serum. Glo Luminescent Cell Viability Assay Kit (see manufacturer's instructions for details) was used to measure ATP content to assess cell growth inhibition. Briefly, 30 μl of Cell Titer-Glo reagent was added to each well, and the plate was shaken for 10 minutes to induce cell lysis. Fluoroskan
Ascent FL (Thermo) assay was used to record the fluorescent signal, and the maximum signal value was obtained from cells treated with dimethyl sulfoxide for 72 hours. The minimum signal value was obtained from the medium alone (the number of cells was zero), and the % inhibition rate=(the maximum signal value compound signal value)/(the maximum signal value—the minimum signal value×100%, and the data were processed using Graphpadprism 5 software. By sigmoid Dose-response curve fitting to calculate the IC50 value. “A” means IC50≤50 nM; “B” means 50<IC50≤500 nM; “C” means 500<IC50≤2000 nM; “D” means 2000 nM<IC50

SMILES	IC50
C=C(F)C(=O)N1CCN(c2nc(OC[C@@]34CCCN3C[C@H](F)C4)nc3c(F)c(-c4cccc5cccc(F)c45)c(Cl)cc23)[C@H](C)C1 [Compound 38, 6-Chloro-7-(8-fluoronaphthyl)-8-fluoro-4-(((R)-4-(2-fluoroacryloyl)-2-methylpiperazine)-1-yl)-2-(((2R,7aS)-2-fluorotetrahydro-1H-pyrinyl-7a(5H)-yl)methoxy)quinazoline]	≤ 50 nM
C=C(F)C(=O)N1C2CCC1CN(c1nc(OC[C@@]34CCCN3C[C@H](F)C4)nc3c(F)c(-c4cccc5cccc(F)c45)c(Cl)cc13)C2 [Compound 39, 6-Chloro-7-(8-fluoronaphthyl)-8-fluoro-4-(8-(2-fluoroacryloyl)-3,8-diazabicyclo[3.2.1]octan-3-yl)-2-(((2R,7aS)-2-fluorotetrahydro-1H-pyrincycline-7a(5H)-yl)methoxy)quinazoline]	≤ 50 nM
C=CC(=O)N1CCN(c2nc(OC[C@@]34CCCN3C[C@H](F)C4)nc3c(F)c(-c4cccc5cccc(F)c45)c(Cl)cc23)C[C@@H]1CC#N [Compound 40, 6-Chloro-7-(8-fluoronaphthyl)-8-fluoro-4-(((S)-4-acryloyl-3-carbonitrileethylpiperazine)-1-yl)-2-(((2R,7aS)-2-fluorotetrahydro-1H-pyrinyl-7a(5H)-yl)methoxy)quinazoline]	≤ 50 nM
C=C(F)C(=O)N1CCN(c2nc(OC[C@@]34CCCN3C[C@H](F)C4)nc3c(F)c(-c4cccc5cccc(F)c45)c(Cl)cc23)C[C@@H]1CC#N [Compound 41, 6-Chloro-7-(8-fluoronaphthyl)-8-fluoro-4-(((S)-4-(2-fluoroacryloyl)-3-carbonitrileethylpiperazine)-1-yl)-2-(((2R,7aS)-2-fluorotetrahydro-1H-pyrincycline-7a(5H)-yl)methoxy)quinazoline]	≤ 50 nM
C=C(F)C(=O)N1C2CCC1CN(c1nc(OC[C@@]34CCCN3C[C@H](F)C4)nc3c(F)c(-c4cc(O)cc5cccc(F)c45)c(Cl)cc13)C2 [Compound 42, 6-Chloro-74(3-hydroxy-8-fluoronaphthyl)-8-fluoro-4-(8-(2-fluoroacryloyl)-3,8-diazabicyclo[3.2.1]octane-3-yl)-2-(((2R,7aS)-2-fluorotetrahydro-1H-pyrincycline-7a(5H)-yl)methoxy)quinazoline]	≤ 50 nM
C=C(F)C(=O)N1CCN(c2nc(OC[C@@]34CCCN3C[C@H](F)C4)nc3c(F)c(-c4cc(O)cc5cccc(F)c45)c(Cl)cc23)[C@H](C)C1 [Compound 44, 6-Chloro-74(3-hydroxy-8-fluoronaphthyl)-8-fluoro-4-(((R)-4-(2-fluoroacryloyl)-2-methylpiperazine)-1-yl)-2-(((2R,7aS)-2-fluorotetrahydro-1H-pyrincycline-7a(5H)-yl)methoxy)quinazoline]	≤ 50 nM
C=CC(=O)N1CCN(c2nc(OC[C@@]34CCCN3C[C@H](F)C4)nc3c(F)c(-c4cc(O)cc5cccc(F)c45)c(Cl)cc23)[C@H](C)C1 [Compound 46, 6-Chloro-7-(3-hydroxy-8-fluoronaphthyl)-8-fluoro-4-(((R)-4-acryloyl-2-methylpiperazine)-1-yl)-2-(((2R,7aS)-2-fluorotetrahydro-1H-pyrinyl-7a(5H)-yl)methoxy)quinazoline]	≤ 50 nM
C=CC(=O)N1CCN(c2nc(OC[C@@]34CCCN3C[C@H](F)C4)nc3c(F)c(-c4cccc5cccc(F)c45)ccc23)[C@H](C)C1 [Compound 47, 7-(8-Fluoronaphthyl)-8-fluoro-4-(((R)-4-acryloyl-2-methylpiperazine)-1-yl)-2-(((2R,7aS)-2-fluorotetrahydro-1H-pyrincyclo-7a(5H)-yl)methoxy)quinazoline]	≤ 50 nM
C=CC(=O)N1CCN(c2nc(OC[C@@]34CCCN3C[C@H](F)C4)nc3c(F)c(-c4cc(O)cc5cccc(F)c45)ccc23)[C@H](C)C1 [Compound 48, 7-(3-Hydroxy-8-fluoronaphthyl)-8-fluoro-4-(((R)-4-acryloyl-2-methylpiperazine)-1-yl)-2-(((2R, 7aS)-2-fluorotetrahydro-1H-pyrincycline-7a(5H)-yl)methoxy)quinazoline]	≤ 50 nM
C=C(F)C(=O)N1CCN(c2nc(OCC34CCCN3CCC4)nc3c(F)c(-c4cccc5cccc(F)c45)ccc23)C[C@@H]1CC#N [Compound 58, 7-(8-fluoronaphthyl)-8-fluoro-4-(((S)-4-(2-fluoroacryloyl)-3-carbonitrileethylpiperazine)-1-yl)-2-((tetrakis Preparation of Hydro-1H-Pyrin-7a(5H)-yl)methoxy)quinazoline]	≤ 50 nM

Next, values leading:

IC50	SMILES
≤ 50 nM	C=CC(=O)N1CCN(c2nc(OCC34CCCN3CCC4)nc3c(F)c(-c4cc(O)cc5cccc(F)c45)ccc23)[C@H](C)C1 [Compound 49, 7-(3-Hydroxy-8-fluoronaphthyl)-8-fluoro-4-(((R)-4-acryloyl-2-methylpiperazine)-1-yl)-2-((tetrahydro-1H-pyrinyl-7a(5H)-yl)methoxy)quinazoline]
≤ 50 nM	C=CC(=O)N1CCN(c2nc(OCC34CCCN3CCC4)nc3c(F)c(-c4cccc5cccc(F)c45)ccc23)[C@H](C)C1 [Compound 50, 7-(8-fluoronaphthyl)-8-fluoro-4-(((R)-4-acryloyl-2-methylpiperazine)-1-yl)-2-((tetrahydro-1H-pyrinecyclo-7a(5H)-yl)methoxy)quinazoline]
≤ 50 nM	C=C(F)C(=O)N1CCN(c2nc(OC[C@@]34CCCN3C[C@H](F)C4)nc3c(F)c(-c4cc(O)cc5cccc(F)c45)ccc23)C[C@@H]1CC#N [Compound 52]
≤ 50 nM	C=CC(=O)N1CCN(c2nc(OCC34CCCN3CCC4)nc3c(F)c(-c4cccc5cccc(F)c45)ccc23)C[C@@H]1CC#N [Compound 54, 7-(8-fluoronaphthyl)-8-fluoro-4-(((S)-4-(acryloyl)-3-carbonitrileethylpiperazine)-1-yl)-2-((tetrahydro-1H-pyrin-7a(5H)-yl)methoxy)quinazoline]
≤ 50 nM	C=CC(=O)N1CCN(c2nc(OCC34CCCN3CCC4)nc3c(F)c(-c4cc(O)cc5cccc(F)c45)ccc23)C[C@@H]1CC#N [Compound 55]
≤ 50 nM	C=C(F)C(=O)N1CCN(c2nc(OCC34CCCN3CCC4)nc3c(F)c(-c4cc(O)cc5cccc(F)c45)ccc23)C[C@@H]1CC#N [Compound 57]
≤ 50 nM	C=CC(=O)N1CCN(c2nc(OC[C@@]34CCCN3CC(F)(F)C4)nc3c(F)c(-c4cc(O)cc5cccc(F)c45)ccc23)[C@H](C)C1 [Compound 60, 7-(3-Hydroxy-8-fluoronaphthyl)-8-fluoro-4-(((R)-4-acryloyl-2-methylpiperazine)-1-yl)-2-(((S)-2,2-difluorotetrahydro-1H-pyrinyl-7a(5H)-yl)methoxy)quinazoline]
≤ 50 nM	C=CC(=O)N1CCN(c2nc(OC[C@@]34CCCN3CC(F)(F)C4)nc3c(F)c(-c4cccc5cccc(C)c45)ccc23)C[C@@H]1CC#N [Compound 67]
≤ 50 nM	C=C(F)C(=O)N1CCN(c2nc(OC[C@@]34CCCN3CC(F)(F)C4)nc3c(F)c(-c4cccc5cccc(C)c45)ccc23)C[C@@H]1CC#N [Compound 68, 7-(8-Methylnaphthyl)-8-fluoro-4-(((S)-4-(2-fluoroacryloyl)-3-carbonitrileethylpiperazine)-1-yl)-2-(((S)-2,2-difluorotetrahydro-1H-pyrinyl-7a(5H)-yl)methoxy)quinazoline]
